According to ChEMBL document CHEMBL4602667, “An NMR-Based Chemometric Strategy to Identify Leishmania donovani Nucleoside Hydrolase Inhibitors from the Brazilian Tree Ormosia arborea” (J Nat Prod, 2020):
Calls of active or inactive are those of the source. No cut-off for these calls is given here.

Tests used:
Leishmania donovani = test: Reversible inhibition of recombinant Leishmania donovani C-terminal His6-tagged Nucleoside hydrolase expressed in Escherichia coli BL21(DE3) cells assessed recovery of enzyme activity at 10 times of IC50 preincubated for 20 mins followed by inosine addition by jump dilution experiment based assay
[1] = Inhibition of recombinant Leishmania donovani C-terminal His6-tagged Nucleoside hydrolase expressed in Escherichia coli BL21(DE3) cells assessed as reduction in uric acid formation by coupled assay
[2] = Noncompetitive inhibition of recombinant Leishmania donovani C-terminal His6-tagged Nucleoside hydrolase expressed in Escherichia coli BL21(DE3) cells assessed as decrease in Vmax using 0.01 to 3 mM of inosine as substrate preincubated for 20 mins followed by inosine addition

Row | IC50 [1] [µM] | SMILES | inhibition (Leishmania donovani) | Ki [2] [µM]
1 | 28.2 | O=C(/C=C/c1ccc(O)cc1)O[C@@H]1Cc2c(O)cc3c(c2O[C@@H]1c1ccc(O)c(O)c1)[C@H]1c2c(O)cc(O)cc2O[C@@](c2cc(O)c(O)c(O)c2)(O3)[C@@H]1O | Active | 27.9
2 | 25.6 | O=C(/C=C/c1ccc(O)cc1)O[C@@H]1Cc2c(O)cc3c(c2O[C@@H]1c1ccc(O)c(O)c1)[C@H]1c2c(O)cc(O)cc2O[C@@](c2ccc(O)c(O)c2)(O3)[C@@H]1O | Active | 21.2
